Biological target: T1, human M1 receptor (hCHRM1) (Homo sapiens, UniProt P11229)
T1 construct: expressed in transfected cells; host or cells: CHO-K1
T1 sequence (P11229 1-460): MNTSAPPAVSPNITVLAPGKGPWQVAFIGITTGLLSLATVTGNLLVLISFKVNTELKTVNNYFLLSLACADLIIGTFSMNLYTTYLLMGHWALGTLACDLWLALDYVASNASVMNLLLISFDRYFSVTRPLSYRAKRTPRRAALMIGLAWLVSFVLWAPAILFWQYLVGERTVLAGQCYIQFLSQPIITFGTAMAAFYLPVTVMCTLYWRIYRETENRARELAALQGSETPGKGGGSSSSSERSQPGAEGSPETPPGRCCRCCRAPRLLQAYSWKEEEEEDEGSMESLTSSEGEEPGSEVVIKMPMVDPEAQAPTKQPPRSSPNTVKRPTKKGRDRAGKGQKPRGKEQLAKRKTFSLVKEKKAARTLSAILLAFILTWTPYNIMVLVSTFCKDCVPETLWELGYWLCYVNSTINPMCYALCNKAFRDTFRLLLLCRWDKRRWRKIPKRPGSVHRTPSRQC
Experiment: Measurement of M1 receptor positive allosteric modulator (M1PAM) activity, calcium fluorescence (FLIPRtetra) in CHO-K1 cells in the presence of acetylcholine at EC20
Format: cell-based
Conditions: in the presence of acetylcholine at EC20 (final 0.6 nM), CHO-K1 cells expressing hCHRM1; for EC50: inflection point of M1PAM activity, read-out: IP value; for activity (%) at 10 μM: test compound 10 μM
How it was run: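 CHO-K1 cells expressing human M1 were loaded with Fluo-4 AM, and compound was added with acetylcholine at EC20 (final 0.6 nM). Calcium fluorescence was read on FLIPRtetra for 1 min. Activity was normalized to 1 μM acetylcholine (100%) and DMSO (0%), and the curve inflection point was reported as IP.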

SMILES | EC50 [nM] | activity (%) at 10 μM [%]
Cc1nn(C)cc1-c1ccc(CN2Cc3ccnc(OCC(F)(F)c4ccccn4)c3C2=O)c(F)c1 [Example 347, 4-(2,2-difluoro-2-(pyridin-2-yl)ethoxy)-2-(4-(1,3-dimethyl-1H-pyrazol-4-yl)-2-fluorobenzyl)-1,2-dihydro-3H-pyrrolo[3,4-c]pyridin-3-one] | 10 | 97
Cc1nn(C)cc1-c1ccc(CN2Cc3ccnc(OCc4ncccc4F)c3C2=O)c(F)c1 [Example 329, 2-(4-(1,3-dimethyl-1H-pyrazol-4-yl)-2-fluorobenzyl)-4-((3-fluoropyridin-2-yl)methoxy)-1,2-dihydro-3H-pyrrolo[3,4-c]pyridin-3-one] | 4.3 | 106
O=C1c2c(cccc2O[C@@H]2CCOC[C@H]2O)CN1Cc1ccc(Cl)cc1 (single isomer, unassigned) [Example 292, 1,5-anhydro-3-O-(2-(4-chlorobenzyl)-3-oxo-2,3-dihydro-1H-isoindol-4-yl)-2-deoxy-threo-pentitol] | 48 | 101
Cc1nn(C)cc1-c1ccc(CN2Cc3ccnc(OCC4CCOC4)c3C2=O)cc1 (stereo not drawn) [Example 265, 2-(4-(1,3-dimethyl-1H-pyrazol-4-yl)benzyl)-4-((tetrahydrofuran-3-yl)methoxy)-1,2-dihydro-3H-pyrrolo[3,4-c]pyridin-3-one] | 24 | 96
Cc1cc(-c2ccc(CN3Cc4ccnc(O[C@H]5CCC[C@@H]5O)c4C3=O)cc2)ccn1 (relative stereo) [Example 76, 4-((trans-2-hydroxycyclopentyl)oxy)-2-(4-(2-methylpyridin-4-yl)benzyl)-1,2-dihydro-3H-pyrrolo[3,4-c]pyridin-3-one] | 7.2 | 108
Cn1cc(-c2ccc(CN3Cc4ccnc(Oc5ccc(OC(F)(F)F)cc5F)c4C3=O)cc2)cn1 [Example 362, 4-(2-fluoro-4-(trifluoromethoxy)phenoxy)-2-(4-(1-methyl-1H-pyrazol-4-yl)benzyl)-1,2-dihydro-3H-pyrrolo[3,4-c]pyridin-3-one] | 30 | 98
CNC(=O)c1ccc(CN2Cc3ccnc(Oc4ccc(Br)cc4F)c3C2=O)cc1F [Example 442, 4-((4-(4-bromo-2-fluorophenoxy)-3-oxo-1,3-dihydro-2H-pyrrolo[3,4-c]pyridin-2-yl)methyl)-2-fluoro-N-methylbenzamide] | 38 | 100
CCNC(=O)c1ccc(CN2Cc3ccnc(Oc4ccc(C(F)(F)F)cc4F)c3C2=O)cc1F [Example 436, N-ethyl-2-fluoro-4-((4-(2-fluoro-4-(trifluoromethyl)phenoxy)-3-oxo-1,3-dihydro-2H-pyrrolo[3,4-c]pyridin-2-yl)methyl)benzamide] | 41 | 106
Cn1cc(-c2ccc(CN3Cc4ccnc(OCc5ccccc5F)c4C3=O)cc2)nn1 [Example 332, 4-((2-fluorobenzyl)oxy)-2-(4-(1-methyl-1H-1,2,3-triazol-4-yl)benzyl)-1,2-dihydro-3H-pyrrolo[3,4-c]pyridin-3-one] | 17 | 106
O=C1c2c(cccc2O[C@@H]2COCC[C@H]2O)CN1Cc1ccc(F)cc1F (single isomer, unassigned) [Example 301, 1,5-anhydro-2-deoxy-4-O-(2-(2,4-difluorobenzyl)-3-oxo-2,3-dihydro-1H-isoindol-4-yl)-threo-pentitol] | 120 | 89
Cc1cc(C)c(Oc2nccc3c2C(=O)N(Cc2ccc(-c4ccn(C)n4)cc2)C3)c(F)c1 [Example 414, 4-(2-fluoro-4,6-dimethylphenoxy)-2-(4-(1-methyl-1H-pyrazol-3-yl)benzyl)-1,2-dihydro-3H-pyrrolo[3,4-c]pyridin-3-one] | 69 | 103
Cc1nn(C)cc1-c1ccc(CN2Cc3ccnc(O[C@H]4CCCC[C@@H]4O)c3C2=O)s1 (relative stereo) [Example 402, 2-((5-(1,3-dimethyl-1H-pyrazol-4-yl)-2-thienyl)methyl)-4-((trans-2-hydroxycyclohexyl)oxy)-1,2-dihydro-3H-pyrrolo[3,4-c]pyridin-3-one] | 4.6 | 104
Cn1cc(-c2ccc(CN3Cc4cccc(Oc5c(F)cc(F)cc5C#N)c4C3=O)cc2)cn1 [Example 73] | 24 | 99
O=C1c2c(ncnc2Oc2c(F)cc(F)cc2F)CN1Cc1ccc(-c2ccnnc2)cc1 [Example 369, 6-(4-(pyridazin-4-yl)benzyl)-4-(2,4,6-trifluorophenoxy)-6,7-dihydro-5H-pyrrolo[3,4-d]pyrimidin-5-one] | 54 | 103
CCC(O)COc1cccc2c1C(=O)N(Cc1ccc(-c3cnn(C)c3)cc1)C2 (stereo not drawn) [Example 261, 7-(2-hydroxybutoxy)-2-(4-(1-methyl-1H-pyrazol-4-yl)benzyl)isoindolin-1-one] | 25 | 98
Cc1cc(-c2ccc(CN3Cc4ccnc(Oc5ccc(C(F)F)cc5F)c4C3=O)cc2)cnn1 [Example 392, 4-(4-(difluoromethyl)-2-fluorophenoxy)-2-(4-(6-methylpyridazin-4-yl)benzyl)-1,2-dihydro-3H-pyrrolo[3,4-c]pyridin-3-one] | 16 | 105
Cn1cc(-c2ccc(CN3Cc4cccc(O[C@H]5CCC[C@@H]5O)c4C3=O)cc2)cn1 (relative stereo) [Example 4, 7-((trans-2-hydroxycyclopentyl)oxy)-2-(4-(1-methyl-1H-pyrazol-4-yl)benzyl)isoindolin-1-one] | 13 | 101
O=C1c2c(ccnc2OCC2CCCO2)CN1Cc1ccc(-c2cnn(CC3CC3)c2)cc1 (stereo not drawn) [Example 288, 2-(4-(1-(cyclopropylmethyl)-1H-pyrazol-4-yl)benzyl)-4-((tetrahydrofuran-2-yl)methoxy)-1,2-dihydro-3H-pyrrolo[3,4-c]pyridin-3-one] | 12 | 103
Cn1cc(-c2ccc(CN3Cc4cccc(O[C@H]5CCCC[C@@H]5O)c4C3=O)cn2)cn1 (relative stereo) [Example 27] | 6.4 | 97
Cc1ccn(-c2ccc(CN3Cc4cccc(O[C@H]5CCC[C@@H]5O)c4C3=O)cc2)n1 (relative stereo) [Example 40, 7-((trans-2-hydroxycyclopentyl)oxy)-2-(4-(3-methyl-1H-pyrazol-1-yl)benzyl)isoindolin-1-one] | 64 | 117
NC(=O)c1ccc(CN2Cc3ccnc(Oc4ccc(CC(F)(F)F)cc4F)c3C2=O)cc1F [Example 459, 2-fluoro-4-((4-(2-fluoro-4-(2,2,2-trifluoroethyl)phenoxy)-3-oxo-1,3-dihydro-2H-pyrrolo[3,4-c]pyridin-2-yl)methyl)benzamide] | 32 | 93
Cc1cc(-c2ccc(CN3Cc4cccc(OCC5CCCO5)c4C3=O)cc2)ccn1.Cl (stereo not drawn) [Example 353, 2-(4-(2-methylpyridin-4-yl)benzyl)-7-((tetrahydrofuran-2-yl)methoxy)isoindolin-1-one hydrochloride] | 46 | 97
NC(=O)c1ccc(CN2Cc3ccnc(Oc4ccc(C5CC5)cc4F)c3C2=O)cc1F [Example 446, 4-((4-(4-cyclopropyl-2-fluorophenoxy)-3-oxo-1,3-dihydro-2H-pyrrolo[3,4-c]pyridin-2-yl)methyl)-2-fluorobenzamide] | 26 | 107
CNC(=O)c1ccc(CN2Cc3ccnc(Oc4ccc(C(F)(F)F)cc4F)c3C2=O)cn1 [Example 456, 5-((4-(2-fluoro-4-(trifluoromethyl)phenoxy)-3-oxo-1,3-dihydro-2H-pyrrolo[3,4-c]pyridin-2-yl)methyl)-N-methylpyridine-2-carboxamide] | 46 | 91
Cn1cc(-c2ccc(CN3Cc4cccc(OCC(=O)N5CCCCC5)c4C3=O)cc2)cn1 [Example 16, 2-(4-(1-methyl-1H-pyrazol-4-yl)benzyl)-7-(2-oxo-2-(piperidin-1-yl)ethoxy)isoindolin-1-one] | 47 | 106
Cc1cc(C(F)(F)F)cc(F)c1Oc1nccc2c1C(=O)N(Cc1ccc(-c3ccn(C)n3)cc1)C2 [Example 421, 4-(2-fluoro-6-methyl-4-(trifluoromethyl)phenoxy)-2-(4-(1-methyl-1H-pyrazol-3-yl)benzyl)-1,2-dihydro-3H-pyrrolo[3,4-c]pyridin-3-one] | 39 | 112
CCC(O)COc1nccc2c1C(=O)N(Cc1ccc(-c3cn(C)nc3C)cc1)C2 (single isomer, unassigned) [Example 277, 2-(4-(1,3-dimethyl-1H-pyrazol-4-yl)benzyl)-4-(2-hydroxybutoxy)-1,2-dihydro-3H-pyrrolo[3,4-c]pyridin-3-one] | 42 | 96
